# Measured values taken from patent US4321386A, “Quaternary piperidinium halides” (Mead Johnson & Company, priority 1981, dated 1982).
# Like-named read-outs stand apart in the source and are kept apart here.
# How the values were obtained:
# [1] = Oral toxicity testing in mice (ALD50, ATD50); conditions: mouse, in vivo
# Method: ^(1) Various oral doses of from 5 mg/kg to 2000 mg/kg are given to 2
# mice each; ALD50 is the approximate lethal dose for half the animals
# ATD50 is the approximate lowest dose where signs of physiologic or […]
# [2] = test system: Ventricular arrhythmia produced in mice by chloroform inhalation; experiment: Chloroform induced arrhythmia test in the mouse; assay type: in vivo; conditions: inhaled or nasal, 10 animals per dose, read-out: Antiarrhythmic Activity Mouse ED50
# From the text: ^(2) Ventricular arrhythmia produced in mice by chloroform inhalation
# 10 animals per dose (Lawson, J. W., J. Pharmacol. Exp. Therap., 160, 22
# [3] = mice, oral, approximate lethal dose for half the animals, read-out: Toxicity ALD50
# [4] = mice, oral, approximate lowest dose where signs of physiologic or neurologic deficit appear, read-out: Toxicity ATD50
smiles,measurement,setting,value
"COc1ccc(C(=O)Nc2ccccc2CCC2CCCCN2C)cc1 (stereo not drawn) [I, reference compound]",LD50,[1]; [3],50 to 100 mg/kg
same,TD50,[1]; [4],5 to 10 mg/kg
same,ED50,[2],7 to 15 mg/kg
"COc1ccc(C(=O)Nc2ccccc2CCC2CCCC[N+]2(C)C)cc1.[I-] (stereo not drawn) [IIa, 2-[2-[2-[(4-Methoxybenzoyl)amino]phenyl]ethyl]-1,1-dimethylpiperidinium Iodide]",LD50,[1]; [3],> 2000 mg/kg
same,TD50,[1]; [4],250 mg/kg
same,ED50,[2],30.5 mg/kg
"COc1ccc(C(=O)Nc2ccccc2CCC2CCCC[N+]2(C)Cc2ccccc2)cc1 (stereo not drawn) [IIb, 2-[2--[2-[(4-Methoxybenzoyl)amino]phenyl]ethyl]-1-methyl-1-(phenylmethyl)piperidinium Bromide Hydrate]",LD50,[1]; po,> 1000 mg/kg
same,TD50,[1]; po,125 to 250 mg/kg
same,ED50,[2],19 mg/kg
